Tested on: 15-d-PGJ2
Assay: 15-d-PGJ2 ELISA in urine of aged mice given 25HC
Format: in vivo, mouse
Conditions: 24–26-month-old mice, both genders; urine 12 h after the first treatment with 25HC 50 mg/kg i.p., relative to controls
Description: Figure 9 25HC is an in vivo senolytic in tissues of aged mice (A) Timeline of 25HC treatment in aged mice. Young (5 months old) and old (24–26 months old) mice were treated with 25HC or vehicle for 5 consecutive days. (B) Mass of gastrocnemius muscles in male and female mice. Muscle weight was normalized to body weight. (C) Cdkn1a and Cryab mRNA levels in gastrocnemius (Gastroc) and soleus (Sol) muscles. RNA was collected at 7–9 d after the first treatment with 25HC or vehicle. mRNA levels of the indicated genes were quantified by qRT-PCR, and normalized to those of actin mRNA. The average value of young-vehicle was set at 1. (D) 15-d-PGJ2 analysis in urine. […]
Two groups of male and female C57BL/6J mice were used. […] Senescence markers and CRYAB were analyzed using mRNA from gastrocnemius (Gastroc), soleus (So), tibialis anterior (TA), visceral fat (VF), kidney (Ki), liver (Li), lung (Lu), heart (He), and skin (Sk) samples using qRT-PCR (Figures S14, S15, S16, S17, and S18).
Urine was collected at 12 or 24 h after the first treatment with 25HC or vehicle and diluted 10-fold with assay buffer. The amount of 15-d-PGJ2 was measured using a 15-deoxy-Δ^12,14-PGJ2 ELISA kit according to manufactures’ protocol (Enzo Life Sciences).

C[C@H](CCCC(C)(C)O)[C@H]1CC[C@H]2[C@@H]3CC=C4C[C@@H](O)CC[C@]4(C)[C@H]3CC[C@]12C [25HC, 25-hydroxycholesterol]
15-d-PGJ2 level in urine: greater
